Source: the OligoGym collection
After the bases stand the sugars from the 5' end (letter, count) and the backbone: PS all phosphorothioate, else s phosphorothioate and o phosphodiester by linkage. Methylation of C is not given here. l = locked nucleic acid (LNA); d = 2'-deoxy (DNA)

Biological target: SNHG14
Conditions: ASO
[1] = Mouse Primary Neuronal Cell, 0.005 µM

Row | Sequence | target mRNA inhibition (Human Neuronal Cell, 7.5 µM) [%] | target mRNA inhibition (Human Neuronal Cell, 0.2 µM) [%] | target mRNA inhibition (Human Neuronal Cell, 1 µM) [%] | further results
1 | CTTTCCATTTATTTCCATTT (sugars ldldddldddddddddldll, PS) | 54 | – | – | –
2 | TTAGTATACCCTTTAT (sugars l3 d10 l3, PS) | – | 28 | 20 | –
3 | TTCCATTTATTTCCATTTAT (sugars ldlddlddddddddldldll, PS) | 63 | – | – | –
4 | AACTCTCACTGTAACT (sugars l4 d10 l2, PS) | – | 41 | 53 | –
5 | TTTTTTTCTTACTATCTTCA (sugars l1 d14 l1 d2 l2, PS) | 17 | – | – | –
6 | CTGTATACACCATCCCA (sugars l1 d3 l1 d10 l2, PS) | 65 | – | – | –
7 | CACTGATTTCCTTAAAC (sugars l4 d11 l2, PS) | – | 40 | 43 | –
8 | ATCATTCTCAACAATTAAA (sugars l4 d1 l1 d8 l5, PS) | 49 | – | – | –
9 | CATGACACTTACATAA (sugars l3 d10 l3, PS) | – | 31 | 45 | –
10 | CTGTTTATACCCTTTCCA (sugars l1 d4 l1 d10 l2, PS) | 58 | – | – | –
11 | TCCATAGAATTCTTCA (sugars l4 d10 l2, PS) | – | 51 | 43 | –
12 | CAACATTATTAACCACCTTA (sugars l4 d10 l1 d2 l3, PS) | 55 | – | – | –
13 | GATCATTCTCAACAATTAA (sugars lldlllddddddlllddll, PS) | -2 | – | – | –
14 | TCTGTATACACCATCCC (sugars l2 d13 l2, PS) | 62 | – | – | –
15 | GTTCTACTATACTTTCCT (sugars lldldlddddddddddll, PS) | 63 | – | – | –
16 | TACTCTGCAATACACC (sugars l1 d3 l1 d7 l4, PS) | 63 | – | – | –
17 | CCTTAATCTGTATCAC (sugars l3 d10 l3, PS) | – | 38 | 52 | –
18 | TTTTATACCTTTCTTTAACC (sugars ldddlddddddddlddddll, PS) | -9 | – | – | –
19 | CTTTACTCTGCAATACA (sugars l2 d11 l4, PS) | – | 49 | 59 | –
20 | ATTTAAATTTCCAAACATT (sugars l2 d13 l4, PS) | – | 11 | -17 | –
21 | ATCTCATGACCACCTAA (sugars ldlllddddddddldll, PS) | 66 | – | – | –
22 | GCTCCCAAACAACTAA (sugars l2 d12 l2, PS) | – | 36 | 72 | –

Row | Sequence | target mRNA inhibition (Human Neuronal Cell, 7.5 µM) [%] | target mRNA inhibition (Human Neuronal Cell, 0.2 µM) [%] | target mRNA inhibition (Human Neuronal Cell, 1 µM) [%] | further results
23 | ATTGATTCAATTCCCTT (sugars lddlldddddddlldll, PS) | 59 | – | – | –
24 | TGTTTCCATCTACTATTA (sugars l1 d4 l1 d8 l4, PS) | 67 | – | – | –
25 | AAGAAACACCCTTCCA (sugars l2 d10 l4, PS) | – | 40 | 54 | –
26 | GTTTATACCCTTTCCAAT (sugars ldddlddddddddldlll, PS) | 56 | – | – | –
27 | TAAAATTATTTATACACCA (sugars l3 d1 l2 d9 l4, PS) | 59 | – | – | –
28 | CTCAAAGATCATTCTCA (sugars l3 d10 l1 d1 l2, PS) | 61 | – | – | –
29 | GACCACACTTTCTACCA (sugars l2 d13 l2, PS) | – | 27 | 48 | –
30 | TTTACATTGACACCTA (sugars l2 d10 l4, PS) | – | 20 | 31 | –
31 | TTACTCTGCAATACACC (sugars l2 d11 l4, PS) | – | 55 | 57 | –
32 | ACATGTCCCTTTATATT (sugars l2 d13 l2, PS) | – | -12 | 8 | target mRNA inhibition (Human Neuronal Cell, 5 µM): 21%; target mRNA inhibition [1]: 85.2%
33 | ATCTTTCCATTTATTTCC (sugars l3 d12 l3, PS) | – | 52 | 56 | –
34 | CCTACATCTCATACTTG (sugars l3 d11 l3, PS) | – | – | – | target mRNA inhibition [1]: 96%
35 | GTTTATACCCTTTCCA (sugars l2 d11 l3, PS) | – | 49 | 58 | –
36 | TAAAATTATTTATACACCAT (sugars lldddldddddddldlllll, PS) | 46 | – | – | –
37 | ATGCTTCTAACTAACA (sugars l4 d10 l2, PS) | – | 25 | 46 | –
38 | ATACACAGCACATATT (sugars l2 d10 l4, PS) | – | 29 | 43 | –
39 | ACTGATTTCCTTAAAC (sugars l4 d10 l2, PS) | – | 24 | 52 | –
40 | CTAACTGTTTCTCAATT (sugars l3 d11 l3, PS) | – | 29 | 32 | –
41 | TTTATTTCCATTTATTTTCA (sugars ldldddddddddddlddlll, PS) | 60 | – | – | –
42 | TCACCTAATAGCACCA (sugars l2 d10 l4, PS) | – | 60 | 69 | –
43 | TTCTGTATACACCATCC (sugars l1 d1 l1 d12 l2, PS) | 62 | – | – | –
44 | CTTTCCATTTATTTCCATT (sugars llddldddddddddlddll, PS) | 61 | – | – | –

Row | Sequence | target mRNA inhibition (Human Neuronal Cell, 7.5 µM) [%] | target mRNA inhibition (Human Neuronal Cell, 0.2 µM) [%] | target mRNA inhibition (Human Neuronal Cell, 1 µM) [%] | further results
45 | GTTTATACCCTTTCCAAT (sugars l1 d2 l1 d12 l2, PS) | 61 | – | – | –
46 | ACTGTTTATACCCTTTC (sugars ldddlddddddddldll, PS) | 55 | – | – | –
47 | TTTATCAATATCTTCTCAC (sugars lldldlddddddllddlll, PS) | 58 | – | – | –
48 | TACATCTCATACTTGC (sugars l2 d11 l3, PS) | – | – | – | target mRNA inhibition [1]: 96.5%
49 | TTTCCATTTATTTCCATTTA (sugars lddlddlddddddddlddll, PS) | 61 | – | – | –
50 | TCTCTAATCCTATTCC (sugars l4 d10 l2, PS) | – | 53 | 58 | –
51 | ATTTCATTAAGTCACC (sugars l2 d10 l4, PS) | – | 46 | 59 | –
52 | ATTTACACTTAATTATACTT (sugars ldlllldddddddldlddll, PS) | 45 | – | – | –
53 | TTTCAGCTTTTAACCAGAGT (sugars l2 d15 l3, PS) | 67 | – | – | –
54 | TTATAGCCATTCTATCT (sugars ldldddddddddlldll, PS) | 45 | – | – | –
55 | GCACATTCTTTCTATAC (sugars l1 d1 l3 d9 l3, PS) | 50 | – | – | –
56 | TTCTACTATACTTTCCTCT (sugars ldlddddddddddddldll, PS) | 63 | – | – | –
57 | GACCTCAATACTCTACT (sugars l3 d11 l3, PS) | – | 49 | 58 | –
58 | TATCTCATGACCACCTA (sugars l2 d12 l3, PS) | – | 43 | 52 | –
59 | TACATCTCATACTTGCT (sugars l2 d13 l2, PS) | – | 9 | 23 | target mRNA inhibition (Human Neuronal Cell, 5 µM): -10%; target mRNA inhibition [1]: 84.5%
60 | AGCAACATTATTAACCAC (sugars ldllldddddddlldlll, PS) | 26 | – | – | –
61 | CAAAGATCATTCTCAACA (sugars l1 d1 l2 d8 l6, PS) | 58 | – | – | –
62 | TATACCTTTCTTTAACCCTT (sugars lddldlddddddddddldll, PS) | 62 | – | – | –
63 | TATTGATTCAATTCCCT (sugars l1 d2 l1 d10 l3, PS) | 72 | – | – | –
64 | TTCTACTATACTTTCCTCT (sugars lddddlddddddddlddll, PS) | 57 | – | – | –
